The source of these data is US20230257385A1, “SALT AND SOLID FORMS OF TABERNANTHALOG” (priority 2021, published 2023).

Data set [1] can be described thus: Heat-up/cool-down crystallisation screen of sorbate salt (Example 10, Experiments 5, 8). It is filed as physicochemical. The conditions noted are these: for Observations (t = 1 @ T = 20° C.): Tabernanthalog sorbate salt (Form A) crystallised from binary solvents, solvent A 3.0 vol plus solvent B, one pair per sample; for XRPD (centrifuged, wet): wet pellet. Here is the method:
The relevant solvent (0.225 ml, 3.0 vol) was added to the appropriate vial and the suspensions were stirred and warmed to temperature. If dissolution was not observed, further solvent was added until the solute dissolved, or aliquots of a secondary co-solvent were added to complete dissolution. Once dissolved, the solutions were left to cool down and stand undisturbed under sub-ambient conditions for several days. After crystallisation was judged complete, the products were isolated by centrifugation and the pellets were dried at 40° C. under reduced pressure. Products from the crystallisation (wet and dry) were initially analysed by XRPD (9-minute method), further analyses of certain products were performed by ^1H NMR, DSC and TGA, if the diffraction pattern indicated differences.

Data set [2] in a line: Examination of variability of fusion temperature of sorbate Form A (DSC). It is filed as physicochemical. The protocol:
The factors that were assessed to explain the observed variability in fusion temperature found amongst Form A samples were sample loading, preferred orientation and particle size/homogeneity (Table 271). A weak relationship between sample loading and melt onset was observed, the remainder of the factors examined, appeared to be unrelated.
DSC data were collected from 25 to 220C at a scan rate of at 10° C. min^−1 (Table 292).

A short description of data set [3]: Solubility determinations in SIF buffers FaSSIF, FeSSIF, FaSSGF (Example 8, Experiment 5). Here is the method: The temperature was maintained at 37° C. for 24 h. […] The suspensions were sampled at the relevant time points and centrifuged. The centrifuged pellets, obtained at the time points were analysed by XRPD as a wet pellet and dried, for evidence of form change.
The temperature was maintained at 37° C. for 24 h.
The suspension was sampled at the relevant time points and centrifuged. […] The centrifuged pellets, obtained at the time points were analyzed by XRPD as a wet pellet and dried, for evidence of form change.

The nature of data set [4]: DVS 0 to 90 to 0% RH (mass equilibrated). It is filed as physicochemical. The settings on record: batch 8-A4.
Where [5] appears, read: Experiment 5, heat-up/cool-down crystallisation from binary solvents.
The mark [6] stands for this setting: DSC 25-220° C. at 10° C. min^−1, batches of sorbate salt Form A.
Where [7] appears, read: DSC 25 to 220C at 10° C. min−1, tabernanthalog sorbate Form A samples.
Where [8] appears, read: 37 °C, pH 1.6, fassgf or other biorelevant, thermodynamic from solid.
The mark [9] stands for this setting: 37 °C, pH 5, fessif, thermodynamic from solid.
Setting [10] is: 37 °C, pH 6.5, fassif, thermodynamic from solid.

SMILES strings stand for the structures. ≈ marks a conversion by molar mass, not a printed value.

Turning to `C/C=C/C=C/C(=O)O.COc1ccc2c3c([nH]c2c1)CCN(C)CC3` [Experiment 5-Sample L], the “Observations (t = 1 @ T = 20° C.)” value in data set [1] (Experiment 5) is “Partial”. Besides, in data set [1] (setting [5]), the “XRPD (oven dried @ 40° C., 20 h)” value is given as “Form A” and the “XRPD (centrifuged, wet)” value is reported as “Form A”.
`C/C=C/C=C/C(=O)O.COc1ccc2c3c([nH]c2c1)CCN(C)CC3` [Experiment 5-Sample M]: the “Observations (t = 1 @ T = 20° C.)” value in data set [1] (Experiment 5) was “Liquid”. Also, in data set [1] (setting [5]), the “XRPD (oven dried @ 40° C., 20 h)” value is recorded as “Form A” and the “XRPD (centrifuged, wet)” value is recorded as “Form A”.
Consider `C/C=C/C=C/C(=O)O.COc1ccc2c3c([nH]c2c1)CCN(C)CC3` [Experiment 5-Sample N], for which the “Observations (t = 1 @ T = 20° C.)” value in data set [1] (Experiment 5) is given as “Partial”. For the same molecule, in data set [1] (setting [5]), the “XRPD (oven dried @ 40° C., 20 h)” value is recorded as “Form A” and the “XRPD (centrifuged, wet)” value is “Form A”.
On to `C/C=C/C=C/C(=O)O.COc1ccc2c3c([nH]c2c1)CCN(C)CC3` [Experiment 5-Sample O], for which, in data set [1] (Experiment 5), the “Observations (t = 1 @ T = 20° C.)” value is “Liquid”. Further, in data set [1] (setting [5]), the “XRPD (oven dried @ 40° C., 20 h)” value is given as “Form A” and the “XRPD (centrifuged, wet)” value is on record as “Form A”.
Take `C/C=C/C=C/C(=O)O.COc1ccc2c3c([nH]c2c1)CCN(C)CC3` [Experiment 5-Sample P]: the “Observations (t = 1 @ T = 20° C.)” value in data set [1] (Experiment 5) is on record as “Partial”. In data set [1] (setting [5]), the “XRPD (oven dried @ 40° C., 20 h)” value is “Form A” and the “XRPD (centrifuged, wet)” value was “Form A”.
As to `C/C=C/C=C/C(=O)O.COc1ccc2c3c([nH]c2c1)CCN(C)CC3` [Experiment 5-Sample Q], the “Observations (t = 1 @ T = 20° C.)” value in data set [1] (Experiment 5) is “Solid”. In addition, in data set [1] (setting [5]), the “XRPD (oven dried @ 40° C., 20 h)” value is listed as “Form A” and the “XRPD (centrifuged, wet)” value is on record as “Pattern #1”.
As for `CC=CC=CC(=O)O.COc1ccc2c3c([nH]c2c1)CCN(C)CC3` [Experiment 5-Sample R], in data set [1] (Experiment 5), the “Observations (t = 1 @ T = 20° C.)” value is recorded as “Liquid”. In addition, in data set [1] (setting [5]), the “XRPD (oven dried @ 40° C., 20 h)” value is “Form A” and the “XRPD (centrifuged, wet)” value is on record as “Pattern #4”.
Turning to `C/C=C/C=C/C(=O)O.COc1ccc2c3c([nH]c2c1)CCN(C)CC3` [Experiment 6-Sample C1], the Endset in data set [2] (setting [6]) stood at 151.0 °C; in data set [2] (DSC melt endset, 25 to 220C at 10° C. min−1, tabernanthalog sorbate Form A samples), 151.02 °C. The values for the melt enthalpy in data set [2] (setting [6]) and in data set [2] (setting [7]) were −100.5 Jg^−1 and −100.48 Jg-1, respectively. Besides, the melt onset is 144.7 °C in data set [2] (setting [6]) and 144.66 °C in data set [2] (setting [7]). The peak in data set [2] (setting [6]) amounted to 148.8 °C; in data set [2] (DSC melt peak, 25 to 220C at 10° C. min−1, tabernanthalog sorbate Form A samples), 148.83 °C.
With `CC=CC=CC(=O)O.COc1ccc2c3c([nH]c2c1)CCN(C)CC3` [Experiment 8-Sample A], the “XRPD (centrifuged, wet)” value in data set [1] (Experiment 8, repeat of HUCD crystallisations aiming at Pattern #1 (water) and Pattern #6 (heptane/ethyl formate)) is on record as “Pattern #1”.
In data set [3] (setting [8]), `COc1ccc2c3c([nH]c2c1)CCN(C)CC3` [Tabernanthalog• Sorbate] showed a solubility at 1 h of 21.9 mg/mL (≈ 95 mM), a solubility at 3 h of 29.8 mg/mL (≈ 130 mM), a solubility at 6 h of 30.3 mg/mL (≈ 131 mM) and a solubility at 24 h of 29.9 mg/mL (≈ 130 mM). In data set [3] (setting [9]), this molecule had a solubility at 1 h of 27.2 mg/mL (≈ 118 mM), a solubility at 3 h above 30 mg/mL and a solubility at 6 h above 30 mg/mL. In data set [3] (setting [10]), this molecule came in with a solubility at 1 h above 30 mg/mL, a solubility at 3 h above 30 mg/mL and a solubility at 6 h above 30 mg/mL. Also, the “XRPD (dried)” value in data set [3] (FaSSGF (pH 1.6), t = 1 h @37° C., suspended solid, dried pellet) is recorded as “Sorbic acid”. Also, in data set [3] (FaSSGF (pH 1.6), t = 1 h @37° C., suspended solid, wet pellet), the “XRPD (wet)” value was “Sorbic acid”.
With `COc1ccc2c3c([nH]c2c1)CCN(C)CC3` [fumarate], the “DVS 0 to 90 to 0% RH (dm/dt <0.002%)” value came to 0.1179% in data set [4] (desorption, 5.0% RH); 0.1551% in data set [4] (desorption, 10.0% RH); 0.1857% in data set [4] (desorption, 15.0% RH); 0.2126% in data set [4] (desorption, 20.0% RH); 0.2387% in data set [4] (desorption, 25.0% RH); 0.2656% in data set [4] (desorption, 30.0% RH). Moreover, the “DVS 0 to 90 to 0% RH (dm/dt <0.002%)” value amounted to 0.3210% in data set [4] (desorption, 40.0% RH); 0.3797% in data set [4] (desorption, 50.0% RH); 0.4515% in data set [4] (desorption, 60.0% RH); 0.5442% in data set [4] (desorption, 70.0% RH); 0.6827% in data set [4] (desorption, 80.0% RH); 0.9766% in data set [4] (desorption, 90.0% RH). Also, the “DVS 0 to 90 to 0% RH (dm/dt <0.002%)” value in data set [4] (sorption, 0.0% RH) is “DVS 0 to 90 to 0% RH (dm/dt <0.002%): 0.0 (0.0004%), 5.0”; in data set [4] (sorption, 5.0% RH) it was 0.0627%; in data set [4] (sorption, 10.0% RH), 0.0957%; in data set [4] (sorption, 15.0% RH) it was 0.1397%; in data set [4] (sorption, 20.0% RH), 0.1778%; in data set [4] (sorption, 25.0% RH) it was 0.2093%. Moreover, the “DVS 0 to 90 to 0% RH (dm/dt <0.002%)” value is given as 0.2401% in data set [4] (sorption, 30.0% RH); 0.3145% in data set [4] (sorption, 40.0% RH); 0.4051% in data set [4] (sorption, 50.0% RH); 0.5451% in data set [4] (sorption, 70.0% RH); 0.6660% in data set [4] (sorption, 80.0% RH); 0.9766% in data set [4] (sorption, 90.0% RH).
